Experiments:
[1] = target: T1, hP2Y14R (Homo sapiens, UniProt Q15391); assay: Inhibition of fluorescent antagonist binding in whole hP2Y14R-expressing CHO cells (flow cytometry); settings: Table 2; tracer 2 (20 nM, 45 min), CHO cells; read-out: hP2Y14R, IC50
T1 construct: expressed in transfected cells; host or cells: CHO cells
T1 sequence (Q15391 1-338): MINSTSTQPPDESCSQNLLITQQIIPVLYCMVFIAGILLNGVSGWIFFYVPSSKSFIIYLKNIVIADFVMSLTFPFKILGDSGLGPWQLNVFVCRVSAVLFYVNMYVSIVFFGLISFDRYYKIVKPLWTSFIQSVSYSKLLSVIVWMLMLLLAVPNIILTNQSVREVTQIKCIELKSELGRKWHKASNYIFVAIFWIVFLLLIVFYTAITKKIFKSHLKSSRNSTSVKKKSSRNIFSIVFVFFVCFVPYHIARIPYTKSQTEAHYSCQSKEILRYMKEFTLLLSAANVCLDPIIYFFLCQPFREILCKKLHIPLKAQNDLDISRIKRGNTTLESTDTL

[2] = target: T2, mP2Y14R (Mus musculus, UniProt Q9ESG6); assay: cell-based
T2 sequence (Q9ESG6 1-338): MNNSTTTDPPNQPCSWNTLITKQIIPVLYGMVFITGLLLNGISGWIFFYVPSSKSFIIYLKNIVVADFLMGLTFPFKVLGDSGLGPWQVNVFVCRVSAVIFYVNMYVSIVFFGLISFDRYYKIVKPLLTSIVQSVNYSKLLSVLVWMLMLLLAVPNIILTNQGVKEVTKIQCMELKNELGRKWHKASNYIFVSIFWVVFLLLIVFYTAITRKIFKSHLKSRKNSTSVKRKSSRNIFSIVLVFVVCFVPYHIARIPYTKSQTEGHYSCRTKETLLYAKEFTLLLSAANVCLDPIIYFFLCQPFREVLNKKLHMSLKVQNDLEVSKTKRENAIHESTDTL
Excerpt: Desirably, receptor affinity is maintained across species, facilitating performance in in vivo preclinical testing in small animals, with the mouse being the most commonly used species in initial evaluation.

[3] = target: T3, CYP1A2 (Homo sapiens, UniProt P05177); assay: CYP1A2 inhibition; type: in vitro ADME; settings: Table 4
T3 sequence (P05177 1-516): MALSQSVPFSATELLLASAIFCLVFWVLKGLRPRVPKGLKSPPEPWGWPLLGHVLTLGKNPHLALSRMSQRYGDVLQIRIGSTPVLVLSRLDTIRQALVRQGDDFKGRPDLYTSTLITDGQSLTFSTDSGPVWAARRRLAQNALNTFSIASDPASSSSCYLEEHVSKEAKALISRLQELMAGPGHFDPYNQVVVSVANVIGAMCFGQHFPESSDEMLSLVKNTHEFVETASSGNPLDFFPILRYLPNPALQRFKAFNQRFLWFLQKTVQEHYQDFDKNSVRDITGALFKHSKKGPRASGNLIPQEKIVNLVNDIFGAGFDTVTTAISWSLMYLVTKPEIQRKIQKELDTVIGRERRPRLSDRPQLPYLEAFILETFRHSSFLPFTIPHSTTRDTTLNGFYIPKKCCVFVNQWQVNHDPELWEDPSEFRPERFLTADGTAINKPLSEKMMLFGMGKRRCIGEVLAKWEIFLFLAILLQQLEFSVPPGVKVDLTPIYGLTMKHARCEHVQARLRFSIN

[4] = target: CYP2C19 (Homo sapiens, UniProt P33261); assay: CYP2C19 inhibition; type: in vitro ADME; settings: Table 4
CYP2C19, sequence (P33261 whole entry): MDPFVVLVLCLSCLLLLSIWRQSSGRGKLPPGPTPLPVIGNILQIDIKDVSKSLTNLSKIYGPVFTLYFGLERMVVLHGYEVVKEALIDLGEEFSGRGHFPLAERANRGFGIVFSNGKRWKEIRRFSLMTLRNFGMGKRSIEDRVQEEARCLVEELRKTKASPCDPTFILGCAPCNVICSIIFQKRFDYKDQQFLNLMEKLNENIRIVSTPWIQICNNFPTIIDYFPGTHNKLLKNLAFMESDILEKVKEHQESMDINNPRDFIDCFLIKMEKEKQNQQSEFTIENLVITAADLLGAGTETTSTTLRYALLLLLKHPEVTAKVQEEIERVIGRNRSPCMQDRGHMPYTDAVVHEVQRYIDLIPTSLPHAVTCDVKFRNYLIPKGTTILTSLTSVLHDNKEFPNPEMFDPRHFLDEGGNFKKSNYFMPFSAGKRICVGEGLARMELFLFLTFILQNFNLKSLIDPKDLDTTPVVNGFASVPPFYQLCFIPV

[5] = target: CYP2D6 (Homo sapiens, UniProt P10635); assay: CYP2D6 inhibition; type: in vitro ADME; settings: Table 4
CYP2D6, sequence (P10635 whole entry): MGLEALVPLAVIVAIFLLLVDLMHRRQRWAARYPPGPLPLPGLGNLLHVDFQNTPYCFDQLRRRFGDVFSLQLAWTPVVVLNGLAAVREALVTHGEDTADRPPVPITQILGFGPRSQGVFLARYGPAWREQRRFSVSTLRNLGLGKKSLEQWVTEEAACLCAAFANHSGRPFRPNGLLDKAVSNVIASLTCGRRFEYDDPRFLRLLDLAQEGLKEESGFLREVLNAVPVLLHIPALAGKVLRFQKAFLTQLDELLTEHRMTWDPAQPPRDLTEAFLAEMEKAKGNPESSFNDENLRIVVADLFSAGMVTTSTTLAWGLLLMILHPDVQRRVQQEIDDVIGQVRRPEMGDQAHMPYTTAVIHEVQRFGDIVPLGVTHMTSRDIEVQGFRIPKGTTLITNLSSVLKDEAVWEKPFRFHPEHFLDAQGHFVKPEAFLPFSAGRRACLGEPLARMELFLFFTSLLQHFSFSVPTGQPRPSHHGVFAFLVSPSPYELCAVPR

[6] = target: CYP3A4 (Homo sapiens, UniProt P08684); assay: CYP3A4 inhibition; type: in vitro ADME; settings: Table 4
CYP3A4, sequence (P08684 whole entry): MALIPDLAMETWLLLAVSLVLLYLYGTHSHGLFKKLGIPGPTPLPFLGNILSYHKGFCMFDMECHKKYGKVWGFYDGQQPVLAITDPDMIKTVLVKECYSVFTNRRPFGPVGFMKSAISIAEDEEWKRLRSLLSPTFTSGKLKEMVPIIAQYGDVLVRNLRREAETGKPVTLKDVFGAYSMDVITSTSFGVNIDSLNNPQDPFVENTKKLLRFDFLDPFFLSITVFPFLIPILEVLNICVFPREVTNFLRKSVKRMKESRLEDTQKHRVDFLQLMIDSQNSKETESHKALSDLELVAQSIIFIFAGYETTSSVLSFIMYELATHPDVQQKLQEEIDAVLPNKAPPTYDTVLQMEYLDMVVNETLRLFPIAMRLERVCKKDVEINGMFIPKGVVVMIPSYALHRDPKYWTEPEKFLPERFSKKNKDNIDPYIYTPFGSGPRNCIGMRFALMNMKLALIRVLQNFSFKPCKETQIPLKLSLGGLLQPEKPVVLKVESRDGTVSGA

[7] = Microsomal stability, rat; type: in vitro ADME; settings: Table 4
[8] = Microsomal stability, mouse; type: in vitro ADME; settings: Table 4
[9] = in vivo; settings: Wistar, rat, iv, 0.5 mg/kg
[10] = target: CYP2C9 (Homo sapiens, UniProt P11712); assay: CYP2C9 inhibition; settings: read-out: CYP2C9 (IC50); Table 4
CYP2C9, sequence (P11712 whole entry): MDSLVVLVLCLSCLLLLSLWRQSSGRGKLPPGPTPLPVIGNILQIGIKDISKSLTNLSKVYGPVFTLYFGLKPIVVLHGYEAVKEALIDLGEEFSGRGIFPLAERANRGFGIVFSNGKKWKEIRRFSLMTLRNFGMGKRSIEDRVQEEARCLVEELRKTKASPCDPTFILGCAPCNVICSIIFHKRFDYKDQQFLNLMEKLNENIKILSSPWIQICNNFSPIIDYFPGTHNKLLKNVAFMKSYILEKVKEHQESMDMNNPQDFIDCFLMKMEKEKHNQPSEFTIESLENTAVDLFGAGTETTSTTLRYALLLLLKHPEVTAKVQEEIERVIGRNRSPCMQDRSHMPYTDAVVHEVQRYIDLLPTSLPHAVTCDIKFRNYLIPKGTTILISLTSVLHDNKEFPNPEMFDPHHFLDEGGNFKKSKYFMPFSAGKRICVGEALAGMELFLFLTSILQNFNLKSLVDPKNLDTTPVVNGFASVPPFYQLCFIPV

[11] = Plasma stability, rat; settings: Table 4
[12] = Plasma stability, mouse; settings: Table 4
[13] = Microsomal stability, human; settings: Table 4
[14] = Aqueous solubility, pION method; settings: mean ± SD, Table 4
[15] = Stability in simulated gastric fluid; settings: Table 4
[16] = Stability in simulated intestinal fluid; settings: Table 4
[17] = target: hERG ion channel (Homo sapiens, UniProt Q12809); assay: hERG ion channel block, patch clamp assay
hERG ion channel, sequence (Q12809 whole entry): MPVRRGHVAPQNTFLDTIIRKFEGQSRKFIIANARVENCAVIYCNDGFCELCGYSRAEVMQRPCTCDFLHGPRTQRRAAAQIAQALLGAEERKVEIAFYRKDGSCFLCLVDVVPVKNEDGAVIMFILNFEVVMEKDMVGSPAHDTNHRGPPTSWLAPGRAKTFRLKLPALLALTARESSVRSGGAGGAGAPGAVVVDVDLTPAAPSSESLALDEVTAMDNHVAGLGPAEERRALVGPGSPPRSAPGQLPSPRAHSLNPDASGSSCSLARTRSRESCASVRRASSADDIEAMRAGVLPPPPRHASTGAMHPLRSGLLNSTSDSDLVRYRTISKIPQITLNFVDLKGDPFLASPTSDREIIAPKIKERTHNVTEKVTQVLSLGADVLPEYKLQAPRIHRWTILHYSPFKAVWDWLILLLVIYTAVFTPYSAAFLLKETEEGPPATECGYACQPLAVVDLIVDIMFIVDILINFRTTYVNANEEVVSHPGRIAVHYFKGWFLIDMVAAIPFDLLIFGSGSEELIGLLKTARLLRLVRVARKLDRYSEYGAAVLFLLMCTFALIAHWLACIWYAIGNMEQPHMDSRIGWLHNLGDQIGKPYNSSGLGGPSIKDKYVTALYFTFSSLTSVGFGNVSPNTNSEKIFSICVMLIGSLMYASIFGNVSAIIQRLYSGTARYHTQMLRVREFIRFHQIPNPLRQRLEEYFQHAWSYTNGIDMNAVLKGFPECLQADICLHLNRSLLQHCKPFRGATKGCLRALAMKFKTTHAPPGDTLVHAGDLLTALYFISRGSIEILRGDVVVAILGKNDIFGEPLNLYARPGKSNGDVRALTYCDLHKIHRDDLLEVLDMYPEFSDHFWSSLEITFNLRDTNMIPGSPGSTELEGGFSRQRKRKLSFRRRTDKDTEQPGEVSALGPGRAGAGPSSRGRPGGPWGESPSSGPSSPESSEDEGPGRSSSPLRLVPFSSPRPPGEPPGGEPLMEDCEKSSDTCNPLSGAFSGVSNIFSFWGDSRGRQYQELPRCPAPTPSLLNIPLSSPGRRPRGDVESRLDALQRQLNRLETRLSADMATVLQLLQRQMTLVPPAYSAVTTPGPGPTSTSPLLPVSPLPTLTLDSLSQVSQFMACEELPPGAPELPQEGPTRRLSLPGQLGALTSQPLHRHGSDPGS

[18] = Pharmacokinetics in Wistar rats (i.v., i.p.)
[19] = tested on: CCI-induced mechano-allodynia; assay: Chronic constriction injury (CCI) mouse model of neuropathic pain; settings: 10 μmol/kg, i.p., day 7 post-injury

## O=C(O)c1cc(-c2ccc(-c3cc(CO)on3)cc2)c2ccc(-c3ccc(C(F)(F)F)cc3)cc2c1 [Compound 32, 4-(4-(5-(Hydroxymethyl)isoxazol-3-yl)phenyl)-7-(4-(trifluoromethyl)phenyl)-2-naphthoic acid]
[1]
  IC50: 0.015 ± 0.0044 µM
[2]; comparison of species, in words
  affinity at the mP2Y14R vs the human homologue: nearly the same affinity in the two species
[2]; read-out: mP2Y14R, IC50, Table 2, tracer 2 (20 nM, 45 min), HEK293 cells
  IC50: 0.0186 ± 0.0084 µM
[3]
  IC50: > 30 µM
[4]
  IC50: > 30 µM
[5]
  IC50: > 30 µM
[6]
  IC50: > 30 µM
[7]
  Microsomal stability (t1/2, min): 47.7 min
[8]
  Microsomal stability (t1/2, min): >240 (m) min
[9]
  bioavailability: 100%
[10]
  IC50: 10.4 µM
[11]
  Plasma stability (t1/2, min): TBD (h); >240 (r); min
[12]
  Plasma stability (t1/2, min): >240 (m) min
[13]
  Microsomal stability (t1/2, min): > 240 min
[14]; pH 4.0
  aqueous solubility (pH 4.0, μg/mL): 0.14 ± 0.02 μg/mL
[14]; pH 7.4
  aqueous solubility (pH 7.4, μg/mL): 7.63 ± 1.93 μg/mL
[15]
  Simulated gastric fluid (t1/2, min): 161 min
[16]
  Simulated intestinal fluid (t1/2, min): >240 min
[17]
  IC50: > 30 µM
[18]; i.v. administration in rat, 0.5 mg/kg, Table 4
  t1/2: 0.689 h
[18]; rat, i.p., 1.0 mg/kg
  AUC0-last: 650 ng·h/mL
  AUC0-∞: 700 ng·h/mL
  Cl: 23.83 mL/min/kg
  Cmax: 88.4 ng/mL
  F (%): 139%
  Kel: 0.096 h⁻¹
  T1/2: 7.23 h
  Vd (mL/kg): 14,900 mL/kg
[18]; rat, i.p., 3.0 mg/kg
  AUC0-last: 2060 ng·h/mL
  AUC0-∞: 2120 ng·h/mL
  Cl: 23.67 mL/min/kg
  Cmax: 315 ng/mL
  F (%): 147%
  Kel: 0.148 h⁻¹
  T1/2: 4.68 h
  Vd: 9.57 L/kg
[18]; rat, i.p., 10 mg/kg
  AUC0-last: 4900 ng·h/mL
  AUC0-∞: 4920 ng·h/mL
  Cl: 33.83 mL/min/kg
  Cmax: 786 ng/mL
  F (%): 105%
  Kel: 0.233 h⁻¹
  T1/2: 2.98 h
  Vd: 8.73 L/kg
[18]; rat, i.v., 0.5 mg/kg
  AUC0-last: 234 ng·h/mL
  AUC0-∞: 238 ng·h/mL
  Cl: 35.17 mL/min/kg
  Cmax: 359 ng/mL
  Kel: 1.01 h⁻¹
  T1/2: 0.689 h
  Vd: 2.09 L/kg
[19]
  reversal of mechano-allodynia (figure legend): reversal of CCI-induced mechano-allodynia
